From paper PMC5834492, “Antimycobacterial drug discovery using Mycobacteria-infected amoebae identifies anti-infectives and new molecular targets” (Scientific Reports, 2018)

Tested on: M. marinum GFP
Assay type: cell-based, Mycobacterium marinum
Settings: 10 µM; antibiotic assay

SMILES | M. marinum GFP normalised growth, control=1.00, mean
FC(F)(F)c1nnc2ccc(Cl)nn12 [GSK352635A] | 0.81
CNc1nc(SC)nc2ccccc12 [GSK353069A] | 0.0149
C=CCNc1nc(SC)nc2ccccc12 [GSK353071A] | 0.09
Clc1ccc(Nc2nc(-c3ccccn3)cs2)nc1 [GSK445886A] | 0.31
COc1ccc2sc(Nc3nc(-c4ccccn4)cs3)nc2c1 [GSK690382A] | 0.98
O=C(O)C(F)(F)F.c1ccc(C[C@H]2CN(c3nccc(Oc4ccc(-n5ccnc5)cc4)n3)CCN2)cc1 [GSK1519001A] | 0.97
CSc1ccc(-c2nnc(NC(=O)c3ccc(Cl)s3)o2)cc1 [GSK1650514A] | 0.91
Cc1ccc2[nH]c(C3CCCNC3)c(-c3ccncc3)c2c1 (centres unmarked) [GSK1905227A] | 0.55
COc1cc(CN2CCC3(C=Cc4ccccc43)CC2)cc2c1OCO2 [SB-354364] | 0.83

Tested on: M. marinum luxCDABE
Assay type: cell-based, Mycobacterium marinum
Settings: not given

SMILES | Antibiotic assays: M. marinum luxCDABE
O=C(COc1cccc(F)c1)Nc1nc(-c2ccccn2)cs1 [GSK920684A] | 0.00
CSc1ccc(C(=O)Nc2nc(-c3ccccn3)cs2)cc1 [GSK921295A] | 0.00

Same assay, conditions: 10 µM

SMILES | M. marinum luxCDABE normalised growth, control=1.00, mean | M. marinum luxCDABE normalised growth, control = 1.00, mean
FC(F)(F)c1nnc2ccc(Cl)nn12 [GSK352635A] | 0.60 | –
CNc1nc(SC)nc2ccccc12 [GSK353069A] | 0.00 | 0,00
C=CCNc1nc(SC)nc2ccccc12 [GSK353071A] | 0.095 | –
Clc1ccc(Nc2nc(-c3ccccn3)cs2)nc1 [GSK445886A] | 0.075 | –
COc1ccc2sc(Nc3nc(-c4ccccn4)cs3)nc2c1 [GSK690382A] | 0.00 | –
O=C(O)C(F)(F)F.c1ccc(C[C@H]2CN(c3nccc(Oc4ccc(-n5ccnc5)cc4)n3)CCN2)cc1 [GSK1519001A] | 0.18 | –
CSc1ccc(-c2nnc(NC(=O)c3ccc(Cl)s3)o2)cc1 [GSK1650514A] | 0.00 | –
Cc1ccc2[nH]c(C3CCCNC3)c(-c3ccncc3)c2c1 (centres unmarked) [GSK1905227A] | 0.08 | –
COc1cc(CN2CCC3(C=Cc4ccccc43)CC2)cc2c1OCO2 [SB-354364] | 1.00 | –

Tested on: Mtb H37Rv in THP-1
Design: method as in Sorrentino et al, 2015
Settings: Mtb H37Rv-infected THP1 cells; ref Sorrentino et al, 2015; cited from earlier work

SMILES | Intracelullar MIC90 in THP-1 [µM]
CNc1nc(SC)nc2ccccc12 [GSK353069A] | 0.07

Same assay, conditions: THP1 / Mtb H37Rv infection assay; ref Sorrentino et al, 2015; cited from earlier work

SMILES | Intracelullar MIC90 in THP-1 [µM]
FC(F)(F)c1nnc2ccc(Cl)nn12 [GSK352635A] | 50
CNc1nc(SC)nc2ccccc12 [GSK353069A] | 0.07
C=CCNc1nc(SC)nc2ccccc12 [GSK353071A] | 1.85
Clc1ccc(Nc2nc(-c3ccccn3)cs2)nc1 [GSK445886A] | >50
O=C(COc1cccc(F)c1)Nc1nc(-c2ccccn2)cs1 [GSK920684A] | 50
CSc1ccc(C(=O)Nc2nc(-c3ccccn3)cs2)cc1 [GSK921295A] | 50
CSc1ccc(-c2nnc(NC(=O)c3ccc(Cl)s3)o2)cc1 [GSK1650514A] | >50

Same assay, conditions: ratio; ref Sorrentino et al, 2015; cited from earlier work

SMILES | Extracellular MIC90/ Inracellular MIC90
FC(F)(F)c1nnc2ccc(Cl)nn12 [GSK352635A] | 0.18
CNc1nc(SC)nc2ccccc12 [GSK353069A] | 2.86
C=CCNc1nc(SC)nc2ccccc12 [GSK353071A] | 1.73
CSc1ccc(C(=O)Nc2nc(-c3ccccn3)cs2)cc1 [GSK921295A] | 0.17

Tested on: Mtb H37Rv
Design: method as in Sorrentino et al, 2015
Settings: ref Sorrentino et al, 2015; cited from earlier work

SMILES | Extracellular MIC90 [µM]
FC(F)(F)c1nnc2ccc(Cl)nn12 [GSK352635A] | 9.1
CNc1nc(SC)nc2ccccc12 [GSK353069A] | 0.2
C=CCNc1nc(SC)nc2ccccc12 [GSK353071A] | 3.2
CSc1ccc(C(=O)Nc2nc(-c3ccccn3)cs2)cc1 [GSK921295A] | 8.7

Tested on: M. marinum in A. castellanii
Assay type: cell-based, Mycobacterium marinum
Settings: not given

SMILES | Intracellular infection assays: A. castellanii / M. marinum
CSc1ccc(C(=O)Nc2nc(-c3ccccn3)cs2)cc1 [GSK921295A] | 1.37

Same assay, conditions: 10 µM

SMILES | A. castellanii / M. marinum normalised growth, control=1.00, mean | Hits A. castellanii/M. marinum assay True/False | anti-infective properties in A. castellanii infection assay
FC(F)(F)c1nnc2ccc(Cl)nn12 [GSK352635A] | 1.02 | – | –
CNc1nc(SC)nc2ccccc12 [GSK353069A] | 0.47 | TRUE | strong anti-infective properties
C=CCNc1nc(SC)nc2ccccc12 [GSK353071A] | 0.77 | – | –
Clc1ccc(Nc2nc(-c3ccccn3)cs2)nc1 [GSK445886A] | 1.31 | – | –
COc1ccc2sc(Nc3nc(-c4ccccn4)cs3)nc2c1 [GSK690382A] | 1.07 | – | –
O=C(O)C(F)(F)F.c1ccc(C[C@H]2CN(c3nccc(Oc4ccc(-n5ccnc5)cc4)n3)CCN2)cc1 [GSK1519001A] | 1.14 | – | –
CSc1ccc(-c2nnc(NC(=O)c3ccc(Cl)s3)o2)cc1 [GSK1650514A] | 1.31 | – | –
Cc1ccc2[nH]c(C3CCCNC3)c(-c3ccncc3)c2c1 (centres unmarked) [GSK1905227A] | 1.23 | – | –
COc1cc(CN2CCC3(C=Cc4ccccc43)CC2)cc2c1OCO2 [SB-354364] | 1.02 | – | –

Tested on: D. discoideum GFP-ABD
Settings: 10 µM

SMILES | D. discoideum GFP-ABD normalised growth, control=1.00, mean
FC(F)(F)c1nnc2ccc(Cl)nn12 [GSK352635A] | 1.17
CNc1nc(SC)nc2ccccc12 [GSK353069A] | 0.99
C=CCNc1nc(SC)nc2ccccc12 [GSK353071A] | 0.92
COc1ccc2sc(Nc3nc(-c4ccccn4)cs3)nc2c1 [GSK690382A] | 1.25
O=C(O)C(F)(F)F.c1ccc(C[C@H]2CN(c3nccc(Oc4ccc(-n5ccnc5)cc4)n3)CCN2)cc1 [GSK1519001A] | 0.76
CSc1ccc(-c2nnc(NC(=O)c3ccc(Cl)s3)o2)cc1 [GSK1650514A] | 1.16
Cc1ccc2[nH]c(C3CCCNC3)c(-c3ccncc3)c2c1 (centres unmarked) [GSK1905227A] | 0.85
COc1cc(CN2CCC3(C=Cc4ccccc43)CC2)cc2c1OCO2 [SB-354364] | 0.86

Tested on: M. marinum in BV2 microglial cells
Assay type: cell-based, Mycobacterium marinum
Settings: not given

SMILES | IC50 [µM] | Intracellular infection assays: BV2 / M. marinum
FC(F)(F)c1nnc2ccc(Cl)nn12 [GSK352635A] | 7.58 | –
CNc1nc(SC)nc2ccccc12 [GSK353069A] | 1.31 | –
C=CCNc1nc(SC)nc2ccccc12 [GSK353071A] | 4.77 | –
Clc1ccc(Nc2nc(-c3ccccn3)cs2)nc1 [GSK445886A] | 1.75 | –
COc1ccc2sc(Nc3nc(-c4ccccn4)cs3)nc2c1 [GSK690382A] | 11.9 | –
CSc1ccc(C(=O)Nc2nc(-c3ccccn3)cs2)cc1 [GSK921295A] | – | 1.23
CSc1ccc(-c2nnc(NC(=O)c3ccc(Cl)s3)o2)cc1 [GSK1650514A] | 19.7 | –
Cc1ccc2[nH]c(C3CCCNC3)c(-c3ccncc3)c2c1 (centres unmarked) [GSK1905227A] | 9.76 | –
COc1cc(CN2CCC3(C=Cc4ccccc43)CC2)cc2c1OCO2 [SB-354364] | 16.8 | –

Same assay, conditions: 10 µM

SMILES | BV2 / M. marinum normalised growth, control=1.00, mean | anti-infective properties in microglial cell (BV2) infection assay | hit in BV2/M. marinum assay True/False
FC(F)(F)c1nnc2ccc(Cl)nn12 [GSK352635A] | 0.89 | – | –
CNc1nc(SC)nc2ccccc12 [GSK353069A] | 0.42 | strong anti-infective properties | TRUE
C=CCNc1nc(SC)nc2ccccc12 [GSK353071A] | 0.53 | – | –
Clc1ccc(Nc2nc(-c3ccccn3)cs2)nc1 [GSK445886A] | 0.84 | – | –
COc1ccc2sc(Nc3nc(-c4ccccn4)cs3)nc2c1 [GSK690382A] | 0.85 | – | –
O=C(O)C(F)(F)F.c1ccc(C[C@H]2CN(c3nccc(Oc4ccc(-n5ccnc5)cc4)n3)CCN2)cc1 [GSK1519001A] | 0.74 | – | –
CSc1ccc(-c2nnc(NC(=O)c3ccc(Cl)s3)o2)cc1 [GSK1650514A] | 0.90 | – | –
Cc1ccc2[nH]c(C3CCCNC3)c(-c3ccncc3)c2c1 (centres unmarked) [GSK1905227A] | 0.77 | – | –
COc1cc(CN2CCC3(C=Cc4ccccc43)CC2)cc2c1OCO2 [SB-354364] | 0.80 | – | –
